Data on 29 compounds can be found in ChEMBL document CHEMBL1201862, “PubChem BioAssay data set” (2004).

Active and inactive are the calls of the source. Where only a bound is given, the exact number is not on record here.

As a reminder, the IC50 is the concentration that inhibits the measured activity by half. For orientation: EC50 means the concentration giving half of the maximal effect. The term AC50 denotes the midpoint of the concentration-response curve, whichever way the signal moves.

In assay [1] the target is T1, Ubiquitin-conjugating enzyme E2 N (Homo sapiens, UniProt P61088).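 Further: Dose-response confirmation in a TR-FRET assay detecting UBC13-driven polyubiquitin chain formation, inhibition measured.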
T1 sequence (P61088 whole entry): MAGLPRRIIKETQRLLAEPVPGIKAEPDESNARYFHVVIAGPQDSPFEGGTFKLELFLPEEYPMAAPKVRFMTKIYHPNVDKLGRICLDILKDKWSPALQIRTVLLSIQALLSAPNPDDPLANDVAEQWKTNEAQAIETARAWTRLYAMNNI
It is filed as functional.

The nature of assay [2]: HEp-2 cell cytotoxicity, dose response, cytotoxicity control for RSV inhibitor project, HTS (AID 2410). The note with it: human respiratory syncytial virus. It is filed as functional.
Assay [3] concerns the target T2, Calpain-2 catalytic subunit (Sus scrofa, UniProt P43367).
T2 sequence (P43367 whole entry): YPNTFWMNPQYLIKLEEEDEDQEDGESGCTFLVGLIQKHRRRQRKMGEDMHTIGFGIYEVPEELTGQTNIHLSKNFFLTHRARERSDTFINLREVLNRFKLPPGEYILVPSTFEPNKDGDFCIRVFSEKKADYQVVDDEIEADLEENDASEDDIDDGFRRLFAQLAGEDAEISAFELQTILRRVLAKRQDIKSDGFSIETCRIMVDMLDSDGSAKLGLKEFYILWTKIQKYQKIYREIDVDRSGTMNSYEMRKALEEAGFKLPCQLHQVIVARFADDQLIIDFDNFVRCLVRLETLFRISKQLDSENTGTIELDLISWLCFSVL
Kind of assay: pig calpain II inhibitor potency, dose response, biochemical, fluorogenic peptide substrate (AID 1420). It is filed as functional.

Assay [4] is described as follows: cytotoxicity toward NIH3T3 fibroblasts, dose response, counter-screen, cell-based, ATP luminescence, mouse fibroblasts (AID 2010).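 Further: cells exposed to compound for about 90 hours before reading.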 It is filed as functional.
A short description of assay [5]: inhibitors of intracellular T. cruzi replication, confirmation, NIH3T3 host cells, beta-gal luminescence (AID 2044).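 Further: intracellular parasites grown in NIH/3T3 mouse fibroblasts as host cells; luminescent beta-galactosidase reporter signal from transgenic T. cruzi replicating inside host cells; inhibitors lower the luminescence signal.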 It is filed as functional, cell-based.
A short description of assay [6]: Luminescence Cell-Based Dose Retest to Confirm Inhibitors of Cancer Stem Cells. [Related pubchem assays (depositor defined):AID2717, AID2721]. It is filed as functional. Conditions: Homo sapiens.
Assay [7] relates to H9c2. In words: cells. Conditions: Rattus norvegicus, H9c2, Myocardium. It is filed as functional, cell-based.
Assay [8] deals with T3, Endoribonuclease toxin MazF (Escherichia coli K-12, UniProt P0AE70).
T3 sequence (P0AE70 whole entry): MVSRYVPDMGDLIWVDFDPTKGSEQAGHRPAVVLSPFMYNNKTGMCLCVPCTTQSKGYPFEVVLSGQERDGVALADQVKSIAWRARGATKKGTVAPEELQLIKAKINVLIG
Kind of assay: fluorescent RNA oligo signal without MazF, dose response, counter-screen for MazEF activator project, biochemical, fluorescence, single-stranded RNase substrate (AID 588502). It is filed as functional. In general terms: The purpose of a counterscreen is to sort out artefacts and off-target activity.

The target of assay [9] is T3, Endoribonuclease toxin MazF. In words: MazF toxin RNase activators, dose response, biochemical, fluorescence, single-stranded RNA substrate, uHTS hits (AID 588481). It is filed as functional.
For assay [10], the target named is T4, Protein RecA (Mycobacterium tuberculosis, UniProt P9WHJ3).
T4 sequence (P9WHJ3 whole entry): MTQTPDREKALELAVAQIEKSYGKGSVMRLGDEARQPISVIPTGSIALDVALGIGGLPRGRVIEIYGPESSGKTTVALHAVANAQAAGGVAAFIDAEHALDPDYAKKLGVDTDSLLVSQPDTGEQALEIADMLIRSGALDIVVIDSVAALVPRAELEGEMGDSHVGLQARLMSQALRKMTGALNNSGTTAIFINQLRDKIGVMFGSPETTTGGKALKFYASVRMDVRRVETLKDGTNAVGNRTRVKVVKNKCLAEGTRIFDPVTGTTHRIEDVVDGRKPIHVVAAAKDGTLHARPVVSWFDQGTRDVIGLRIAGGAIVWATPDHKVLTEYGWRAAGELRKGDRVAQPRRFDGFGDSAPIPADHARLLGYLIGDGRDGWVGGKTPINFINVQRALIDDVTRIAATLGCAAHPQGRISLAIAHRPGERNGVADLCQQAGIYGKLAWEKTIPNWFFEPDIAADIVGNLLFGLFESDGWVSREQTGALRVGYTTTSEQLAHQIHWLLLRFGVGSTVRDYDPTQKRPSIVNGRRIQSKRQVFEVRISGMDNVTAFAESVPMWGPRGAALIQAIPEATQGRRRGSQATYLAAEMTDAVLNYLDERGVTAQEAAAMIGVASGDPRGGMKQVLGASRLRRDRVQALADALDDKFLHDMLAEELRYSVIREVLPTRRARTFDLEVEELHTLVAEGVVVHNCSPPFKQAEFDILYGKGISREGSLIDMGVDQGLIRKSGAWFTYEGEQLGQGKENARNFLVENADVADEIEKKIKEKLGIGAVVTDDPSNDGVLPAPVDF
In words: Fluorescence Cell-Free Homogeneous Dose Retest to Identify Inhibitors of RecA-Intein Splicing Activity. [Related pubchem assays (depositor defined):AID2097, AID2223, AID489010, AID492950]. It is filed as functional.

For assay [11], the target named is T5, Replicative DNA helicase DnaB (Mycobacterium tuberculosis, UniProt P9WMR3).
T5 sequence (P9WMR3 whole entry): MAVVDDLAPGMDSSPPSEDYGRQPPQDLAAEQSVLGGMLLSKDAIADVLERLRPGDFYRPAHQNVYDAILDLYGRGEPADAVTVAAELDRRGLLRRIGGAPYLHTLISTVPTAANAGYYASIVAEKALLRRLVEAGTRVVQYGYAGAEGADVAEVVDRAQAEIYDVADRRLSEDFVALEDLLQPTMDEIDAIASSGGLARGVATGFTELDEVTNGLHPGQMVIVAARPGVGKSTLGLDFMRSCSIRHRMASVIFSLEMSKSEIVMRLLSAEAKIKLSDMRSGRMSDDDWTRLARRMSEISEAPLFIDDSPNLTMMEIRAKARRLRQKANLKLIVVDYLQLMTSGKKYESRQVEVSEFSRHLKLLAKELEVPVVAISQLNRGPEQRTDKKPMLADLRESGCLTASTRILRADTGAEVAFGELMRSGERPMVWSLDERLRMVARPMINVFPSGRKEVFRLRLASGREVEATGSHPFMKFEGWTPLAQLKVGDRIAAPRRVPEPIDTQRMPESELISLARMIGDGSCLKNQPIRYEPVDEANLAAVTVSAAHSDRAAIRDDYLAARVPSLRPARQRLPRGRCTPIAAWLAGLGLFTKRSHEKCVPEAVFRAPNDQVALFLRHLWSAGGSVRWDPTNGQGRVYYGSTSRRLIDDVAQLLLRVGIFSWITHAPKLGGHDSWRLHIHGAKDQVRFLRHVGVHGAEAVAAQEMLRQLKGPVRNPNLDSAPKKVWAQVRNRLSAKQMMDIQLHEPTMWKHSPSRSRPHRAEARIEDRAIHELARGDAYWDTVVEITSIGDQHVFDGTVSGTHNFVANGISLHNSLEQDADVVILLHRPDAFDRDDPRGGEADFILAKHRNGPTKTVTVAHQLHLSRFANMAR
Kind of assay: DnaB intein splicing inhibitors, dose response, biochemical, cell-free fluorescence (AID 449749). It is filed as functional.

A short description of assay [12]: cells. It is filed as functional, cell-based.
A short description of assay [13]: cells. It is filed as functional, cell-based. This is another data set of the same source.
In assay [14] the target is Induced myeloid leukemia cell differentiation protein Mcl-1 (Homo sapiens, UniProt Q07820). It is filed as functional.
A short description of assay [15]: cells. It is filed as functional.
A short description of assay [16]: microbe, parasite or virus in culture. It is filed as functional. Conditions: Mycobacterium tuberculosis.

Chain of Induced myeloid leukemia cell differentiation protein Mcl-1 (Q07820 whole entry): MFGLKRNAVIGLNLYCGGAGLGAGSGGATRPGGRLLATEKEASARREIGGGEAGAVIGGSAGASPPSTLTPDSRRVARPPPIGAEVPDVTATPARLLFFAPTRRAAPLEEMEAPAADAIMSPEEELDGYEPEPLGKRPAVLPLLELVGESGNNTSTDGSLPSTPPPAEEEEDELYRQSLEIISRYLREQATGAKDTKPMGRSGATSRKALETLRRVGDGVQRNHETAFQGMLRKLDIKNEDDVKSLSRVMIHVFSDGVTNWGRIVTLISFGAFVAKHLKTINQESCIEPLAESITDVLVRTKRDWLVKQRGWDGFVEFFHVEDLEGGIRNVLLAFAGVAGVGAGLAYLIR

Take `CC(C)COCC(CN(Cc1ccccc1)c1ccccc1)N1CCCC1` (stereo unspecified): the IC50 in assay [1] is > 20 µM (inactive).

As for `CCCCN(CC)S(=O)(=O)c1ccc(C(=O)N(CCCN(C)C)c2nc3cc(C)cc(C)c3s2)cc1`, the IC50 in assay [1] is > 20 µM (inactive); in [3], 8.03 µM (not active). Moreover, the CC50 in [2] was 14.9 µM (active). Also, the EC50 in assay [4] is 9.54 µM (active); in assay [5] it was 0.227 µM (active). In assay [6], the AC50 is 6.96 µM (active). For `O=c1cc(CSc2nc(O)c3ccccc3n2)c2ccc(O)cc2o1`, the IC50 in assay [7] is > 79 µM (inactive). For `CSc1nc(O)c2c3c(sc2n1)CCC3`, the IC50 in assay [7] was > 79 µM (inactive). Consider `CCN(CC)CCn1c(=O)n(-c2ccc(Cl)cc2)c(=O)c2c3c(sc21)CN(C)CC3`, for which the EC50 in [8] and in assay [9] was > 99 µM (inactive) throughout.

With `CCOc1ccc(S(=O)(=O)NCc2cccnc2)cc1C`, the EC50 in assay [10] was > 380 µM (inactive). Further, the AC50 in assay [11] was > 380 µM (inactive). Take `CCC(=O)n1nc(NCc2ccc(OC)c(OC)c2)nc1NCc1ccc(OC)c(OC)c1`: the EC50 in [12] and in assay [13] was > 350 µM (not active) in each case. As for `Cn1c(SCC(=O)c2ccccc2)nnc1-c1ccco1`, the EC50 in assay [12] is > 350 µM (not active); in [13] it was 57.5 µM (active).

As to `CN(C)c1ccc(NC(=O)c2ccc([N+](=O)[O-])cc2Cl)cc1`, the IC50 in assay [14] is on record as 1.11 µM (not active). For the compound `Cn1cccc1/C=C1\SC(=O)N(c2ccccc2)C1=O`, the EC50 in [8] was 32 µM (inactive); in assay [9], > 99 µM (inactive).

For the compound `CCN1C(=S)SC(=O)C1=C1C=C(C)OC(C)=C1`, the EC50 in [8] and in assay [9] was > 99 µM (inactive) each time.

With `N#C/C(=C\Nc1ccc2c(c1)OCCO2)c1nc2ccccc2[nH]1`, the CC50 in assay [2] was 21.4 µM (active). For the same compound, the IC50 in assay [7] was > 79 µM (inactive).

With `Cc1ccc(S[C@@H](CCN2CC[C@H](C)CCC2=O)c2ccccc2)cc1`, in assay [10], the EC50 is 17.6 µM (active). In assay [11], the AC50 was 5.34 µM (active). On to `CC1(C)CC2=Nc3nn(-c4ccccc4)c(O)c3C(c3ccc4c(c3)OCO4)C2=C(O)C1` (stereo unspecified), for which the EC50 in assay [10] is 24 µM (active). In addition, the AC50 in assay [11] was 66.1 µM (active).

Take `CC(NC(=O)c1cc2c(=O)n(C)c3ccccc3c2n1C)c1ccc2c(c1)OCCO2` (stereo unspecified): in assay [7], the IC50 is > 79 µM (inactive). Consider `Cc1ccc(NS(=O)(=O)c2cc(-c3nnc(O)c4ccccc34)ccc2C)cc1`, for which the IC50 in assay [7] was 14.7 µM (active). In the case of `N#Cc1ccc(COC(=O)CCc2c[nH]c3ccccc23)cc1`, in [15], the IC50 was 1.68 µM (active).

With `CSc1ccc(C(=O)C2CCCN(Cc3cc4ccccc4[nH]3)C2)cc1` (stereo unspecified), the IC50 in assay [15] is 13.2 µM (active). With `COc1ccc(-c2noc(CCC(=O)NCC3CCN(Cc4cccc(C)c4)CC3)n2)cc1`, in assay [1], the IC50 was > 20 µM (inactive).

`Cc1ccc(OCCCCNC2CCCC(C)C2C)c(C)c1` (stereo unspecified): in [16], the CC50 is > 40 µM (active). In addition, the EC50 is > 60 µM (not active) in assay [4] and 0.778 µM (active) in assay [5].

As to `CCCn1c(=N)c(C(=O)NCc2ccc3c(c2)OCO3)cc2c(=O)n3cccc(C)c3nc21`, the CC50 in assay [16] was 33.9 µM (active). Further, the EC50 in assay [4] is > 30 µM (not active); in [5] it was 1.67 µM (active). In the case of `FC(F)(F)c1ccc2c(c1)NP(=S)(N1CCOCC1)c1nccn1-2` (stereo unspecified), the EC50 in assay [12] and in [13] was > 350 µM (not active) in each case. For `CCCOC(=O)NC1C(NC(=O)OCCC)N(C)C(=O)N1C` (stereo unspecified), the EC50 in [12] and in [13] was > 350 µM (not active) in each case. For the compound `CC(=O)c1cccc(NC(=O)CN(C)S(=O)(=O)c2cccc3nsnc23)c1`, the EC50 in [12] and in [13] was > 350 µM (not active) throughout. For the compound `CN(C(=O)COC(=O)c1ccc(F)c(S(=O)(=O)N2CCOCC2)c1)C1CCS(=O)(=O)C1` (stereo unspecified), the EC50 in assay [12] and in assay [13] was > 350 µM (not active) in each case. With `O=C(CCc1nc(O)c2ccccc2n1)OCc1nnc(-c2ccccc2)o1`, the IC50 in [7] was 13 µM (active).

`COc1ccccc1NC(=O)C1=C(C)Nc2nnnn2C1c1ccncc1` (stereo unspecified): in assay [11], the AC50 was 21.2 µM (inconclusive). In the case of `CC(C)(C)OC(=O)NCc1ccc(NC(=O)c2[nH]cnc2C(=O)NCCCCCCNC(=O)c2nc[nH]c2C(=O)Nc2ccc(CNC(=O)OC(C)(C)C)cc2)cc1`, the IC50 in assay [7] was > 79 µM (inactive). Take `CCN1C(=O)[C@H]2[C@@H](c3ccc(-c4ccc(C(C)=O)cc4)cc3)N[C@@](C)(C(=O)OC)[C@H]2C1=O`: the IC50 in assay [7] was > 79 µM (inactive).
